Source: patent US8623911B2, “Boron-containing small molecules as anti-protozoal agent” (Anacor Pharmaceuticals, Inc., priority 2010, dated 2014)

What was measured:
[1] = test system: TREU 667 strain of T. b. brucei; assay: Chronic CNS Model [Murine Stage 2 HAT]; assay type: in vivo; details: treated on Day 21 (10 mg/kg), negative control
Procedure: Mice were infected with 10,000 parasites of the TREU 667 strain of T. b. brucei. Twenty one days post-infection mice were treated with a dose of between 6 and 100 mg/kg of a compound of the invention, either BID or QD for 7 days intraperitoneally (IP) or orally (PO). Positive control mice were treated with Diminazene (10 mg/kg, IP) on Day 4 post-infection. Negative control mice were treated with Diminazene (10 mg/kg, PO) on Day 21. Since Diminazene is not able to penetrate the CNS, mice treated at Day 21 are not able to cure the infection. Starting 1 week after treatment, mice were checked for parasitemia by microscopic examination of smears prepared from tail vein blood. Parasite positive animals were immediately removed from the cages and euthanized. Animals were considered to be cured of a CNS infection if they were aparasitemic for at least 180 days after the end of the treatment period.

P-gp (human MDR1) = assay: in vitro; assay type: in vitro ADME, canine; details: dog, MDCK-MDR1; 3 μM test compound; without GF120918; read-out: MDCK-MCR1 Papp
Procedure: (§1) MDCK-MDR1 cells (Madin-Darby canine kidney cells transfected with the human MDR1 gene) (Dr. Piet Borst, NKI-AVL, Amsterdam, The Netherlands) were seeded at 300,000 cells per well onto microporous, polycarbonate membranes in 12 well Costar Transwell® plates (Corning, Corning, N.Y.). The medium was removed and replaced with fresh cell culture medium approximately 24 hours after plating. Cells attained confluency and were ready for use in the transport assay after 72 hours of incubation.
(§2) A stock solution of each compound was prepared in DMSO at a concentration of 10 mg/mL. Stock solutions were further diluted in DMSO to a concentration of 1 mM for use in the assay. The final assay concentration of test compound in each incubation mixture was 3 μM and the final concentration of DMSO was 0.3%.
(§3) Cell cultures were pre-incubated with Transport Medium (TM), consisting of Hanks Balanced Salt Solution (HBSS), 25 mM glucose, and 25 mM HEPES, with and without the known P-gp inhibitor GF120918 (2 μM final assay concentration), for 30-60 minutes prior to the addition of test and control compounds. Following the pre-incubation period, transepithelial electrical resistance (TEER) measurements were taken on each insert to insure the integrity of the monolayer. The range for TEER values was 45-85Ω·cm^2. Transport medium was removed. Fresh transport media (1.5 mL) with or without GF120918 was added to the basolateral chambers. Solutions of the test compound were diluted into TM and added to the appropriate wells in triplicate (400 μL/well) at a final concentration of 3 μM with and without GF120918. The final concentration of DMSO was 0.3%. Control compounds were tested in triplicate at a final concentration of 3 μM. Cell monolayers were incubated with shaking (160 rpm) at 37° C. with 5% CO2 in a humidified incubator for one hour. Following the incubation, all plates were removed from the incubator. Inserts were removed from the plates and TEER measurements were again taken on each insert prior to removing samples for analysis to ensure no degradation of the tight junctions during the assay. An aliquot was taken from each receiver and diluted 1:3 with organic solvent (methanol) to assess transport of each compound across the monolayer. An aliquot was taken from each donor and diluted 1:2 with organic solvent (methanol) and then again 1:50 with matrix (50% methanol/50% TM) to assess mass balance within the study. All samples were assayed for test compound concentrations by LC-MS/MS using electrospray ionization.

MDCK-MDR1 cells = assay: in vitro; assay type: in vitro ADME, canine; details: 3 μM test compound
Procedure: as §1, §2, §3

[2] = test system: LAB 110 Eatro strain of T. b. brucei; assay: Acute Murine Model A [Murine Stage 1 HAT]; assay type: in vivo; details: for Mean Survival Days: mice infected with T. b. brucei, 10 mg/kg, BID, orally, 4 days
Procedure: Female Swiss Webster mice were inoculated with 250,000 parasites of the LAB 110 Eatro strain of T. b. brucei. 24 hrs post-infection, treatment was initiated by administration of a compound of the invention BID for 4 days with 20 mg/kg/dose (40 mg/kg/day) intraperitoneally (IP) or orally (PO), 5 mg/kg BID or 10 mg/kg BID orally (PO). 3 mice per group were treated with a particular compound of the invention. Mice were checked for parasitemia weekly by microscopic examination of smears prepared from tail vein blood. Animals remaining parasite free for more than 30 days beyond the end of the treatment period were considered cured. Control untreated animals typically succumbed to the infection within 4-5 days following i.p. inoculation with parasites. Mice were monitored for 30 days for survival. Pentamidine at 2 mg/kg IP was used as the positive control. After 10 days, 0% of the untreated mice were parasite free. After 10 days, 67% of mice treated PO with 10 mg/kg BID of N-(1-Hydroxy-3,4-dihydro-1H-benzo[c][1,2]oxaborinin-7-yl)-4-methoxy-benzamide (M19) were parasite free. After 30 days, 100% of mice treated PO with 10 mg/kg BID of 4-fluoro-N-(1-hydroxy-3,4-dihydro-1H-benzo[c][1,2]oxaborinin-7-yl)-2-trifluoromethyl-benzamide (M1) were parasite free.

N=C(N)c1ccc(/N=N/Nc2ccc(C(=N)N)cc2)cc1 [Diminazene, reference compound]
day by which all animals relapsed to exhibit blood parasitemia [1]: ≤ 56 days

O=C(Nc1ccc2c(c1)B(O)OCC2)c1ccccc1Cl [M5, 2-Chloro-N-(1-hydroxy-3,4-dihydro-1H-benzo[c][1,2]oxaborinin-7-yl)-benzamide]
Papp at 1 h, 3 µM (P-gp (human MDR1)): 70.7 ×10⁻⁶ cm/s
MDCK-MCR1 AQ (MDCK-MDR1 cells): 0.1
Mean Survival Days [2]: 7 days

O=C(Nc1ccc2c(c1)B(O)OCC2)c1ccccc1Br [M8, 2-Bromo-N-(1-hydroxy-3,4-dihydro-1H-benzo[c][1,2]oxaborinin-7-yl)-benzamide]
Mean Survival Days [2]: 5.6 days

CCc1ccc(C(=O)Nc2ccc3c(c2)B(O)OCC3)cc1 [M12, 4-Ethyl-N-(1-hydroxy-3,4-dihydro-1H-benzo[c][1,2]oxaborinin-7-yl)-benzamide]
Papp at 1 h, 3 µM (P-gp (human MDR1)): 80.3 ×10⁻⁶ cm/s
MDCK-MCR1 AQ (MDCK-MDR1 cells): −0.04
Mean Survival Days [2]: 8 days

CC(C)(C)c1ccc(C(=O)Nc2ccc3c(c2)B(O)OCC3)cc1 [M14, 4-tert-Butyl-N-(1-hydroxy-3,4-dihydro-1H-benzo[c][1,2]oxaborinin-7-yl)-benzamide]
Mean Survival Days [2]: 3.6 days

O=C(Nc1ccc2c(c1)B(O)OCC2)c1ccccc1C(F)(F)F [M15, N-(1-Hydroxy-3,4-dihydro-1H-benzo[c][1,2]oxaborinin-7-yl)-2-trifluoromethyl-benzamide]
Mean Survival Days [2]: >30 days

COc1ccc(C(=O)Nc2ccc3c(c2)B(O)OCC3)cc1 [M19, N-(1-Hydroxy-3,4-dihydro-1H-benzo[c][1,2]oxaborinin-7-yl)-4-methoxybenzamide]
mice parasite free after 10 days ([2]; female Swiss Webster mice, PO 10 mg/kg BID for 4 days, after 10 days): 67%
Mean Survival Days [2]: 9 days

O=C(Nc1ccc2c(c1)B(O)OCC2)c1ccc(Cl)cc1Cl [M27, 2,4-Dichloro-N-(1-hydroxy-3,4-dihydro-1H-benzo[c][1,2]oxaborinin-7-yl)-benzamide]
Papp at 1 h, 3 µM (P-gp (human MDR1)): 85.1 ×10⁻⁶ cm/s
MDCK-MCR1 AQ (MDCK-MDR1 cells): −0.03
Mean Survival Days [2]: >30 days

O=C(Nc1ccc2c(c1)B(O)OCC2)c1ccc(Cl)cc1F [M29, 4-Chloro-2-fluoro-N-(1-hydroxy-3,4-dihydro-1H-benzo[c][1,2]oxaborinin-7-yl)-benzamide]
Papp at 1 h, 3 µM (P-gp (human MDR1)): 80.4 ×10⁻⁶ cm/s
MDCK-MCR1 AQ (MDCK-MDR1 cells): −0.04
Mean Survival Days [2]: >30 days

COC(=O)c1ccc(C(=O)Nc2ccc3c(c2)B(O)OCC3)cc1 [M40, N-(1-Hydroxy-3,4-dihydro-1H-benzo[c][1,2]oxaborinin-7-yl)-terephthalamic acid methyl ester]
Mean Survival Days [2]: 4 days

O=S(=O)(Nc1ccc2c(c1)B(O)OCC2)c1ccc(Cl)cc1 [M43, 4-Chloro-N-(1-hydroxy-3,4-dihydro-1H-benzo[c][1,2]oxaborinin-7-yl)-benzenesulfonamide]
Papp at 1 h, 3 µM (P-gp (human MDR1)): 64.9 ×10⁻⁶ cm/s
MDCK-MCR1 AQ (MDCK-MDR1 cells): 0.05

Cc1ccc(S(=O)(=O)Nc2ccc3c(c2)B(O)OCC3)cc1 [M46, N-(1-Hydroxy-3,4-dihydro-1H-benzo[c][1,2]oxaborinin-7-yl)-4-methylbenzenesulfonamide]
Papp at 1 h, 3 µM (P-gp (human MDR1)): 77.1 ×10⁻⁶ cm/s
MDCK-MCR1 AQ (MDCK-MDR1 cells): 0.05
Mean Survival Days [2]: 5 days

CC(C)c1ccc(S(=O)(=O)Nc2ccc3c(c2)B(O)OCC3)cc1 [M47, N-(1-Hydroxy-3,4-dihydro-1H-benzo[c][1,2]oxaborinin-7-yl)-4-isopropyl-benzenesulfonamide]
Papp at 1 h, 3 µM (P-gp (human MDR1)): 64.8 ×10⁻⁶ cm/s
MDCK-MCR1 AQ (MDCK-MDR1 cells): 0.04
Mean Survival Days [2]: 9 days

CC1(C)COB(O)c2cc(NC(=O)c3ccc(F)cc3C(F)(F)F)ccc21 [M51]
Mean Survival Days [2]: 3.6 days
